# Like-named read-outs stand apart in the source and are kept apart here.
# How the values were obtained:
# NCI-H226 cells = test: Cell growth assay (CellTiter-Glo); assay type: cell-based, human; conditions: 7 days treatment, CellTiter-Glo luminescence, read-out: H226 CTG IC50
# Protocol: Example A: Cell Growth Assay
# CellTiter-Glo reagent (CTG reagent, Promega, G7573).
# […] Also seeding an extra plate as Day 0 control measurement. The microplates were incubated at 37° C., 5% CO2 overnight.
# Compounds were 3-fold serial diluted in DMSO and final top-concentration was […], 10 points. 0.3% DMSO as vehicle control. In addition, […] of CTG reagent was added into the extra plate and incubated at room temperature for 30 minutes and detected luminescence signals as Day 0 control by using EnVision (PerkinElmer, 2104 Mutilabel Reader).
# Incubated other compounds treated plates at 37° C. for another 7 days and […] of CTG reagent was added into the plates and incubated at room temperature for 30 minutes and detected luminescence signals.
# Day 0 luminescence signals were used as negative control or baseline. • Signalday0=average luminescence signals of Day 0 control cells. • Signalblank control=average luminescence signals of blank control. • SignalDMSO vehicle control=average luminescence signals of Day 7 DMSO vehicle control cells. • Signalcpds treatment=luminescence signals of Day 7 compounds treatment cells. Inhibition %=1−(Signalcpds treatment−Signalblank control)/(SignalDMSO vehicle control−Signalblank control)*100.
# (Inhibitory concentration 50% (IC50) and maximum inhibition % were calculated using dose response curves.
# TEAD2 = TEAD2 (Homo sapiens, UniProt Q15562); test: Thermal shift assay TEAD2; assay type: binding
# Protocol: (§1) Example B: Thermal Shift Assay
# (§2) 1) Prepare a fresh dilution of Protein Thermal Shift™ Dye (Applied Biosystems, 1000×) to 8× by […].
# (§3) 2) To ensure the same DMSO concentration, the compounds were diluted as follows: Prepare 10 mM stock solution of compounds;
# (§4) The final DMSO concentration was 0.1%
# (§5) 10 μM: Diluting stock solution to 100 μM by using PBS.
# (§6) 1 μM: Diluting stock solution to 1 mM by using DMSO, then dilute to 10 μM by using PBS.
# (§7) TEAD1: the stock concentration was 2.9 mg/ml; the final concentration was 0.2 mg/ml. TEAD2: the stock concentration was 1.8 mg/ml; the final concentration was 0.08 mg/ml.
# (§8) 4) Place the appropriate reaction plate or tubes on ice, then prepare the protein melt reactions:
# (§9) 5) Pipet each reaction up and down 10 times to mix well.
# (§10) 6) Seal the plate with MicroAmp™ Optical Adhesive Film, spin it at 1000 rpm for 1 minute.
# (§11) 7) Set up and run on the qPCR instrument.
# (§12) Using thermal Shift™ Software v1.3 to analysis.
# TEAD1 = TEAD1 (Homo sapiens, UniProt P28347); test: Thermal shift assay TEAD1; assay type: binding
# Protocol: as §1, §2, §3, §4, §5, §6, §7, §8, §9, §10, §11, §12
# TEAD4 = TEAD4 (Homo sapiens, UniProt Q15561); test: Thermal shift assay TEAD4; assay type: binding
# Protocol: as §1, §2, §3, §4, §5, §6
# TEAD4: the stock concentration was 2.3 mg/ml; the final concentration was 0.1 mg/ml.
# as §8, §9, §10, §11, §12
# TEAD3 = TEAD3 (Homo sapiens, UniProt Q99594); test: Thermal shift assay TEAD3; assay type: binding
# Protocol: as §1, §2, §3, §4, §5, §6
# TEAD3: the stock concentration was 2.4 mg/ml; the final concentration was 0.1 mg/ml.
# as §8, §9, §10, §11, §12
# Sequence of TEAD3 (Q99594 whole entry, species assumed): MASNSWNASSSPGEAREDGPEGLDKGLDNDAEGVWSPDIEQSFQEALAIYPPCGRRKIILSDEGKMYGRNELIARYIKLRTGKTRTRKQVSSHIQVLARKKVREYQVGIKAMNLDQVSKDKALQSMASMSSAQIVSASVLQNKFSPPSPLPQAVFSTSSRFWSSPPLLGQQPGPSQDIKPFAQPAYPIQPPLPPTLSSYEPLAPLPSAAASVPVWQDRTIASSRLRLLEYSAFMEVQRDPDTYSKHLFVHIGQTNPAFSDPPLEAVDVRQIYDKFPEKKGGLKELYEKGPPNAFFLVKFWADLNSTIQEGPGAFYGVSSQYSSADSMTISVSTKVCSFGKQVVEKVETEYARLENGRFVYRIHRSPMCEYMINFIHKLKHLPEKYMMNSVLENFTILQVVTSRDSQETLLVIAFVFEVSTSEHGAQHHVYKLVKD
# Sequence of TEAD1 (P28347 whole entry, species assumed): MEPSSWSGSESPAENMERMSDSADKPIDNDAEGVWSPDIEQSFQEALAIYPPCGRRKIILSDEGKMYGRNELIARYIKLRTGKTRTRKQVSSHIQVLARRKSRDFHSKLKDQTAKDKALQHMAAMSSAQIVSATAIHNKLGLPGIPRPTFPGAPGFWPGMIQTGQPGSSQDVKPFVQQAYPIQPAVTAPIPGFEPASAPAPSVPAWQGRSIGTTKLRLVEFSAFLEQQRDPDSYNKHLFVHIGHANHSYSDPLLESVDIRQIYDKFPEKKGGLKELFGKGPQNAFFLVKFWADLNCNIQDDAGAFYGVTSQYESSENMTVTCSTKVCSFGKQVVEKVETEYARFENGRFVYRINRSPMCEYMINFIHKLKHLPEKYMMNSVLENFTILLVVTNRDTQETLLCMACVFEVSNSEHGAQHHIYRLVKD
# Sequence of TEAD4 (Q15561 whole entry, species assumed): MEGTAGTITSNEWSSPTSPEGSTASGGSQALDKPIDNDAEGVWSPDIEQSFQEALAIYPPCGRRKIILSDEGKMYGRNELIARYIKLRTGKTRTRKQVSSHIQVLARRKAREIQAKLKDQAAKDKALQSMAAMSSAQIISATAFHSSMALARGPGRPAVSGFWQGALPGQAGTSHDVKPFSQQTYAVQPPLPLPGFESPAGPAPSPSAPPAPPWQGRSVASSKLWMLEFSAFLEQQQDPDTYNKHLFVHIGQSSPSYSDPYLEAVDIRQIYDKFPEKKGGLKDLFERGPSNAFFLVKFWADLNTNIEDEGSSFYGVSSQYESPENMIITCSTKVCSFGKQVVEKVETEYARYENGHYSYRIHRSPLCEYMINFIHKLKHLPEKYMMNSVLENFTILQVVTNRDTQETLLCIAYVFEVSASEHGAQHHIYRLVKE
# Sequence of TEAD2 (Q15562 whole entry, species assumed): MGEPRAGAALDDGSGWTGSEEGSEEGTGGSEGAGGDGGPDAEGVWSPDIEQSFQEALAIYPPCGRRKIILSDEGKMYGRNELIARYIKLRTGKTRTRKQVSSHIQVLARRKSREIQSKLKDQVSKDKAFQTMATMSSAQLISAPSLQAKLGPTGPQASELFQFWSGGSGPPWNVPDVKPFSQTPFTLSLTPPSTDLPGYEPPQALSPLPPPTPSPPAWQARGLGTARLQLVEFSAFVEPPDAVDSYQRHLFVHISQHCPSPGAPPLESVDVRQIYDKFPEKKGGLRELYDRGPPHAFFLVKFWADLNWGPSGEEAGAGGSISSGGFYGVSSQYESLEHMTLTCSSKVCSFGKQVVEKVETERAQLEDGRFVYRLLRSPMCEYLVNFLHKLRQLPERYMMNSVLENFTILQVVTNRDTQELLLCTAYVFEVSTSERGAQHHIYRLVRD
Structure (SMILES),"IC50 (NCI-H226 cells; Homo sapiens, NCI-H226, 168 h)",TEAD2 ΔTm (TEAD2),TEAD1 ΔTm (TEAD1),TEAD4 ΔTm (TEAD4),TEAD3 ΔTm (TEAD3),IC50 (NCI-H226 cells)
O=C(O)[C@@H]1CC1c1cc(-c2ccc(C(F)(F)F)cc2)cc2cn[nH]c12 (mixture of isomers) [Example 1],1 to 30 µM,,,,,
Cn1ncc2cc(-c3ccc(C(F)(F)F)cc3)cc(C3C[C@H]3C(=O)O)c21 (mixture of isomers) [Example 3],1 to 30 µM,,,,,
O=C(O)[C@@H]1CC1c1cc(-c2ccc(C(F)(F)F)cc2)cc2cn(-c3cccnc3)nc12 (mixture of isomers) [Example 4],1 to 30 µM,1.6 °C,5 °C,4.2 °C,1.1 °C,
O=C(O)[C@@H]1CC1c1cc(-c2ccc(C(F)(F)F)cc2)cc2[nH]ncc12 (mixture of isomers) [Example 5],1 to 30 µM,,,,,
Cn1cc2c(C3C[C@H]3C(=O)O)cc(-c3ccc(C(F)(F)F)cc3)cc2n1 (mixture of isomers) [Example 6],0.1 to 0.5 µM,,,,,
Cn1ncc2c(C3C[C@H]3C(=O)O)cc(-c3ccc(C(F)(F)F)cc3)cc21 (mixture of isomers) [Example 7],,5.7 °C,5.7 °C,7.2 °C,2 °C,0.1 to 0.5 µM
Cn1ncc2c(C3C[C@H]3C(=O)O)cc(-c3ccc(C(F)(F)F)cc3)cc21 (mixture of isomers) [Example 8],,,,,,1 to 30 µM
O=C(O)[C@@H]1CC1c1cc(-c2ccc(C(F)(F)F)cc2)cc2c1cnn2C(F)F (mixture of isomers) [Example 9],0.1 to 0.5 µM,4.1 °C,5.8 °C,5.6 °C,1.2 °C,
Cn1ncc2c(C3C[C@H]3C(=O)O)cc(-c3ccc(OC(F)(F)F)cc3)cc21 (mixture of isomers) [Example 10],0.1 to 0.5 µM,7.7 °C,6 °C,7.3 °C,2 °C,
Cn1cc2cc(-c3ccc(OC(F)(F)F)cc3)cc(C3C[C@H]3C(=O)O)c2n1 (mixture of isomers) [Example 12],< 0.1 µM,9.4 °C,7.7 °C,11.5 °C,2.3 °C,
O=C(O)[C@@H]1CC1c1cc(-c2ccc(C(F)(F)F)cc2)cc2cccnc12 (mixture of isomers) [Example 13],< 0.1 µM,6.6 °C,7.7 °C,8.3 °C,1.8 °C,
O=C(O)[C@@H]1CC1c1cc(-c2ccc(C(F)(F)F)cc2)cc2scnc12 (mixture of isomers) [Example 14],1 to 30 µM,0.3 °C,0.4 °C,0.2 °C,0 °C,
CN1Cc2cc(-c3ccc(C(F)(F)F)cc3)cc(C3C[C@H]3C(=O)O)c2C1=O (mixture of isomers) [Example 15],0.1 to 0.5 µM,5.1 °C,5 °C,3.7 °C,1.2 °C,
Cn1ncc2c(C3C[C@H]3C(=O)O)cc(OCc3ccc(C(F)(F)F)cc3)cc21 (mixture of isomers) [Example 19],1 to 30 µM,3.4 °C,1.9 °C,1.8 °C,0.9 °C,
O=C(O)[C@@H]1CC1c1cn(-c2ccc(C(F)(F)F)cc2)c2cccnc12 (mixture of isomers) [Example 20],0.1 to 0.5 µM,6.8 °C,3.8 °C,5.9 °C,3.2 °C,
Cc1ccc2c(c1)c(C1C[C@H]1C(=O)O)cn2-c1ccc(C(F)(F)F)cc1 (mixture of isomers) [Example 21],< 0.1 µM,6.7 °C,11 °C,9.3 °C,5.2 °C,

Structure (SMILES),"IC50 (NCI-H226 cells; Homo sapiens, NCI-H226, 168 h)",TEAD2 ΔTm (TEAD2),TEAD1 ΔTm (TEAD1),TEAD4 ΔTm (TEAD4),TEAD3 ΔTm (TEAD3),IC50 (NCI-H226 cells)
CNC(=O)[C@@H]1CC1c1cc(-c2ccc(C(F)(F)F)cc2)cc2c1=NC(C)N=2 (mixture of isomers) [Example 22],< 0.1 µM,5.5 °C,4.5 °C,5.7 °C,1.1 °C,
CCNC(=O)[C@@H]1CC1c1cc(-c2ccc(C(F)(F)F)cc2)cc2c1=NC(C)N=2 (mixture of isomers) [Example 23],0.1 to 0.5 µM,3.5 °C,4.7 °C,6.5 °C,0.7 °C,
Cn1ncc2c(C3C[C@H]3C(N)=O)cc(-c3ccc(C(F)(F)F)cc3)cc21 (mixture of isomers) [Example 25],< 0.1 µM,6.9 °C,5.4 °C,6.6 °C,0.7 °C,
CN(C)C(=O)[C@@H]1CC1c1cc(-c2ccc(C(F)(F)F)cc2)cc2c1cnn2C (mixture of isomers) [Example 26],0.1 to 0.5 µM,1.9 °C,1.7 °C,1.7 °C,0.1 °C,
CC(C)NC(=O)[C@@H]1C[C@H]1c1cc(-c2ccc(C(F)(F)F)cc2)cc2c1cnn2C (racemic) [Example 27],0.1 to 0.5 µM,0.5 °C,0.6 °C,0.6 °C,0.3 °C,
CC(NC(=O)[C@@H]1C[C@H]1c1cc(-c2ccc(C(F)(F)F)cc2)cc2c1cnn2C)c1ccccn1 (mixture of isomers) [Example 28],0.1 to 0.5 µM,0.5 °C,3.7 °C,2.4 °C,0.5 °C,
Cn1ncc2c([C@@H]3C[C@H]3C(=O)NCCO)cc(-c3ccc(C(F)(F)F)cc3)cc21 (racemic) [Example 29],0.5 to 1 µM,,,,,
COCCNC(=O)[C@@H]1C[C@H]1c1cc(-c2ccc(C(F)(F)F)cc2)cc2c1cnn2C (racemic) [Example 30],0.1 to 0.5 µM,0.8 °C,1.6 °C,0.9 °C,0.1 °C,
Cn1ncc2c([C@@H]3C[C@H]3C(=O)N3CC(O)C3)cc(-c3ccc(C(F)(F)F)cc3)cc21 (racemic) [Example 31],0.1 to 0.5 µM,2.7 °C,3 °C,2.8 °C,0 °C,
CNC(=O)[C@@H]1C[C@H]1c1cc(-c2ccc(C(F)(F)F)cc2)cc2c1cnn2C(F)F (racemic) [Example 32],0.1 to 0.5 µM,0.9 °C,2.1 °C,1.3 °C,0.2 °C,
CNC(=O)[C@@H]1CC1c1cc(-c2ccc(OC(F)(F)F)cc2)cc2cn(C)nc12 (mixture of isomers) [Example 33],< 0.1 µM,6.7 °C,4 °C,6.5 °C,0.6 °C,
CNC(=O)[C@@H]1CC1c1cc(Oc2ccc(C(F)(F)F)cc2)cc2cn(C)nc12 (mixture of isomers) [Example 34],< 0.1 µM,12.7 °C,8.5 °C,10.3 °C,6.6 °C,
"Cn1cc2cc(Oc3ccc(C(F)(F)F)cc3)cc([C@@H]3C[C@H]3C(=O)N3CC(O)C3)c2n1 (single isomer, unassigned) [Example 58a]",1 to 30 µM,,,,,
"C[C@H](C#N)NC(=O)[C@@H]1C[C@H]1c1cc(Oc2ccc(C(F)(F)F)cc2)cc2cn(C)nc12 (single isomer, unassigned) [Example 68]",< 0.1 µM,,,,,
"Cc1cn2cc(Oc3ccc(C(F)(F)F)cc3)cc(C3C[C@H]3C(=O)N3CC(O)C3)c2n1 (single isomer, unassigned) [Example 85a]",1 to 30 µM,,,,,
C=C(CS(=O)(=O)NC)c1cc(-c2ccc(C(F)(F)F)cc2)cc2c1cnn2C [Example 43],1 to 30 µM,,,,,
